Reference: PubChem BioAssay (NCI)
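Grown in 96-well plates, cells were treated for 48 hours with each compound at five concentrations. Insufficient inhibition: endpoint recorded as highest concentration tested. TGI: concentration producing complete growth inhibition.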

What was measured:
Assay in all cases: DTP human tumour cell line panel, 48 h
MCF7 breast = test system: MCF7 breast
UACC-257 melanoma = test system: UACC-257 melanoma
UO-31 renal = test system: UO-31 renal
HCT-15 colon = test system: HCT-15 colon
SK-MEL-2 melanoma = test system: SK-MEL-2 melanoma
HCT-116 colon = test system: HCT-116 colon
PC-3 prostate = test system: PC-3 prostate
MDA-N = test system: MDA-N
COLO 205 colon = test system: COLO 205 colon
NCI/ADR-RES ovarian = test system: NCI/ADR-RES ovarian
RPMI-8226 leukemia = test system: RPMI-8226 leukemia
SF-295 CNS = test system: SF-295 CNS
CAKI-1 renal = test system: CAKI-1 renal
NCI-H460 lung = test system: NCI-H460 lung
OVCAR-5 ovarian = test system: OVCAR-5 ovarian
HS 578T breast = test system: HS 578T breast
MALME-3M melanoma = test system: MALME-3M melanoma
T-47D breast = test system: T-47D breast
HT29 colon = test system: HT29 colon
786-0 renal = test system: 786-0 renal
OVCAR-3 ovarian = test system: OVCAR-3 ovarian
DU-145 prostate = test system: DU-145 prostate
U251 CNS = test system: U251 CNS
SNB-75 CNS = test system: SNB-75 CNS
M14 melanoma = test system: M14 melanoma
CCRF-CEM leukemia = test system: CCRF-CEM leukemia
SF-539 CNS = test system: SF-539 CNS
SNB-19 CNS = test system: SNB-19 CNS
MDA-MB-435 = test system: MDA-MB-435
ACHN renal = test system: ACHN renal
RXF 393 renal = test system: RXF 393 renal
TK-10 renal = test system: TK-10 renal
SW-620 colon = test system: SW-620 colon
SK-MEL-28 melanoma = test system: SK-MEL-28 melanoma
SK-OV-3 ovarian = test system: SK-OV-3 ovarian
MOLT-4 leukemia = test system: MOLT-4 leukemia
SF-268 CNS = test system: SF-268 CNS
EKVX NSCLC = test system: EKVX NSCLC
A498 renal = test system: A498 renal
HOP-62 NSCLC = test system: HOP-62 NSCLC
HL-60(TB) leukemia = test system: HL-60(TB) leukemia
OVCAR-4 ovarian = test system: OVCAR-4 ovarian
KM12 colon = test system: KM12 colon
SR leukemia = test system: SR leukemia
OVCAR-8 ovarian = test system: OVCAR-8 ovarian
SK-MEL-5 melanoma = test system: SK-MEL-5 melanoma
K-562 leukemia = test system: K-562 leukemia
SN12C renal = test system: SN12C renal
NCI-H226 lung = test system: NCI-H226 lung
MDA-MB-231 breast = test system: MDA-MB-231 breast
NCI-H522 lung = test system: NCI-H522 lung
LOX IMVI melanoma = test system: LOX IMVI melanoma
IGROV1 ovarian = test system: IGROV1 ovarian
HOP-92 NSCLC = test system: HOP-92 NSCLC
UACC-62 melanoma = test system: UACC-62 melanoma
A549 NSCLC = test system: A549 NSCLC
NCI-H23 lung = test system: NCI-H23 lung
HCC-2998 colon = test system: HCC-2998 colon

## CC(C)=C[C@@H]1C[C@H](n2cc(C)c(=O)[nH]c2=O)ON1CCO
MCF7 breast
  TGI: > 100 µM
UACC-257 melanoma
  TGI: > 100 µM
UO-31 renal
  TGI: > 100 µM
HCT-15 colon
  TGI: > 100 µM
SK-MEL-2 melanoma
  TGI: > 100 µM
HCT-116 colon
  TGI: > 100 µM
PC-3 prostate
  TGI: > 100 µM
MDA-N
  TGI: > 100 µM
COLO 205 colon
  TGI: > 100 µM
NCI/ADR-RES ovarian
  TGI: > 100 µM
RPMI-8226 leukemia
  TGI: > 100 µM
SF-295 CNS
  TGI: > 100 µM
CAKI-1 renal
  TGI: > 100 µM
NCI-H460 lung
  TGI: > 100 µM
OVCAR-5 ovarian
  TGI: > 100 µM
HS 578T breast
  TGI: > 100 µM
MALME-3M melanoma
  TGI: > 100 µM
T-47D breast
  TGI: > 100 µM
HT29 colon
  TGI: > 100 µM
786-0 renal
  TGI: > 100 µM
OVCAR-3 ovarian
  TGI: > 100 µM
DU-145 prostate
  TGI: > 100 µM
U251 CNS
  TGI: > 100 µM
SNB-75 CNS
  TGI: > 100 µM
M14 melanoma
  TGI: > 100 µM
CCRF-CEM leukemia
  TGI: > 100 µM
SF-539 CNS
  TGI: > 100 µM
SNB-19 CNS
  TGI: > 100 µM
MDA-MB-435
  TGI: > 100 µM
ACHN renal
  TGI: > 100 µM
RXF 393 renal
  TGI: > 100 µM
TK-10 renal
  TGI: > 100 µM
SW-620 colon
  TGI: > 100 µM
SK-MEL-28 melanoma
  TGI: > 100 µM
SK-OV-3 ovarian
  TGI: > 100 µM
MOLT-4 leukemia
  TGI: > 100 µM
SF-268 CNS
  TGI: > 100 µM
EKVX NSCLC
  TGI: > 100 µM
A498 renal
  TGI: > 100 µM
HOP-62 NSCLC
  TGI: > 100 µM
HL-60(TB) leukemia
  TGI: > 100 µM
OVCAR-4 ovarian
  TGI: > 100 µM
KM12 colon
  TGI: > 100 µM
SR leukemia
  TGI: > 100 µM
OVCAR-8 ovarian
  TGI: > 100 µM
SK-MEL-5 melanoma
  TGI: > 100 µM
K-562 leukemia
  TGI: > 100 µM
SN12C renal
  TGI: > 100 µM
NCI-H226 lung
  TGI: > 100 µM
MDA-MB-231 breast
  TGI: > 100 µM
NCI-H522 lung
  TGI: > 100 µM
LOX IMVI melanoma
  TGI: > 100 µM
IGROV1 ovarian
  TGI: > 100 µM
HOP-92 NSCLC
  TGI: > 100 µM
UACC-62 melanoma
  TGI: > 100 µM
A549 NSCLC
  TGI: > 100 µM

## COC(=O)c1ccccc1/C=C1/Cc2ccccc2C1=O
MCF7 breast
  TGI: > 100 µM
UACC-257 melanoma
  TGI: 68.1 µM
UO-31 renal
  TGI: > 100 µM
HCT-15 colon
  TGI: 58.6 µM
HCT-116 colon
  TGI: 62.8 µM
PC-3 prostate
  TGI: > 100 µM
MDA-N
  TGI: > 100 µM
COLO 205 colon
  TGI: > 100 µM
NCI/ADR-RES ovarian
  TGI: > 100 µM
RPMI-8226 leukemia
  TGI: 49.5 µM
SF-295 CNS
  TGI: > 100 µM
CAKI-1 renal
  TGI: > 100 µM
NCI-H460 lung
  TGI: > 100 µM
OVCAR-5 ovarian
  TGI: > 100 µM
HS 578T breast
  TGI: 97.3 µM
MALME-3M melanoma
  TGI: > 100 µM
T-47D breast
  TGI: > 100 µM
HT29 colon
  TGI: > 100 µM
OVCAR-3 ovarian
  TGI: > 100 µM
DU-145 prostate
  TGI: > 100 µM
U251 CNS
  TGI: 94.9 µM
NCI-H23 lung
  TGI: > 100 µM
SNB-75 CNS
  TGI: > 100 µM
CCRF-CEM leukemia
  TGI: 98.5 µM
SF-539 CNS
  TGI: > 100 µM
MDA-MB-435
  TGI: > 100 µM
ACHN renal
  TGI: > 100 µM
RXF 393 renal
  TGI: > 100 µM
TK-10 renal
  TGI: > 100 µM
SW-620 colon
  TGI: 85.5 µM
SK-MEL-28 melanoma
  TGI: > 100 µM
SK-OV-3 ovarian
  TGI: > 100 µM
MOLT-4 leukemia
  TGI: 78.5 µM
SF-268 CNS
  TGI: > 100 µM
EKVX NSCLC
  TGI: > 100 µM
A498 renal
  TGI: > 100 µM
HCC-2998 colon
  TGI: > 100 µM
HOP-62 NSCLC
  TGI: > 100 µM
HL-60(TB) leukemia
  TGI: > 100 µM
OVCAR-4 ovarian
  TGI: > 100 µM
KM12 colon
  TGI: 96.5 µM
SR leukemia
  TGI: > 100 µM
OVCAR-8 ovarian
  TGI: > 100 µM
SK-MEL-5 melanoma
  TGI: 62.8 µM
K-562 leukemia
  TGI: > 100 µM
SN12C renal
  TGI: 36.5 µM
NCI-H226 lung
  TGI: > 100 µM
MDA-MB-231 breast
  TGI: > 100 µM
NCI-H522 lung
  TGI: > 100 µM
LOX IMVI melanoma
  TGI: 39.9 µM
IGROV1 ovarian
  TGI: 88.7 µM
HOP-92 NSCLC
  TGI: > 100 µM
UACC-62 melanoma
  TGI: > 100 µM
A549 NSCLC
  TGI: > 100 µM
